In ChEMBL document CHEMBL6182870, “Synthesis and biological activity of 1H-pyrrolo[3,2-g]isoquinolines as Haspin kinase inhibitors” (Bioorg Med Chem, 2025):

Experiments:
[1] = biological target: Glycogen synthase kinase-3 beta (Homo sapiens) (UniProt P49841); test: Inhibition of recombinant human GSK3beta extracted from baculovirus infected Sf9 cells using GS-1 (YRRAAVPPSPSLSRHSSPHQSpEDEEE) peptide as substrate assessed as enzyme residual activity at 1 uM incubated for 30 mins in presence of ATP by ADP-Glo kinase assay relative to control
[2] = biological target: T1, Cyclin-dependent kinase 5/CDK5 activator 1 (Homo sapiens) (UniProt Q00535+Q15078); test: Inhibition of recombinant human CDK5/p25 extracted from bacteria using histone H1 as substrate assessed as enzyme residual activity at 10 uM incubated for 30 mins in presence of ATP by ADP-Glo kinase assay relative to control; assay type: protein-complex assay
[3] = biological target: T2, Serine/threonine-protein kinase haspin (Homo sapiens) (UniProt Q8TF76); test: Inhibition of haspin in human U2OS cells assessed as at 5 uM incubated for 16 hrs by DAPI staining based immunofluorescence analysis relative to control; assay type: cell-based
T2 sequence (whole entry): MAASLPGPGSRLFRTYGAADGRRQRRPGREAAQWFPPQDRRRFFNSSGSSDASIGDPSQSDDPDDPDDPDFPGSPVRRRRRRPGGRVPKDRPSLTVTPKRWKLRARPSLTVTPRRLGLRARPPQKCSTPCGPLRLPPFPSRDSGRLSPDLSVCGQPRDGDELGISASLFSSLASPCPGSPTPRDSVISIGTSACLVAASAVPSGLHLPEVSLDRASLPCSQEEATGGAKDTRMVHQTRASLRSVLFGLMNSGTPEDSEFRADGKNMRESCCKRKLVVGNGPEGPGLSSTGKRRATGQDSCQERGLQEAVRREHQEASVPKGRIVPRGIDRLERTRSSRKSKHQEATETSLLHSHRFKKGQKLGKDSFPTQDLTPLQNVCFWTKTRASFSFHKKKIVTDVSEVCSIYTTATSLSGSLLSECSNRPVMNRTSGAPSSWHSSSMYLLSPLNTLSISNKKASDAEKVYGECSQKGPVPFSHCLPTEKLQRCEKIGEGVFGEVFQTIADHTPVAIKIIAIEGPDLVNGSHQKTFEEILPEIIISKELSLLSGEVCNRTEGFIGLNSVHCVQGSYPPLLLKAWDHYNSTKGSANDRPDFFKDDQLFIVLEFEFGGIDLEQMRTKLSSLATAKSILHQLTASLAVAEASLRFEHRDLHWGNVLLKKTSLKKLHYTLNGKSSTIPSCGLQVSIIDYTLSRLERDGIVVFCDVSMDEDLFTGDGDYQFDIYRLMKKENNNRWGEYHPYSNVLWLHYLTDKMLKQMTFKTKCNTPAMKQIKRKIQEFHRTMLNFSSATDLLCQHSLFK

[4] = biological target: T3, Serine/threonine-protein kinase pim-1 (Homo sapiens, UniProt P11309); test: Inhibition of recombinant human PIM-1 extracted from bacteria using histone H1 as substrate assessed as enzyme residual activity at 1 uM incubated for 30 mins in presence of ATP by ADP-Glo kinase assay relative to control
Target sequence in this assay (P11309 whole entry, looked up): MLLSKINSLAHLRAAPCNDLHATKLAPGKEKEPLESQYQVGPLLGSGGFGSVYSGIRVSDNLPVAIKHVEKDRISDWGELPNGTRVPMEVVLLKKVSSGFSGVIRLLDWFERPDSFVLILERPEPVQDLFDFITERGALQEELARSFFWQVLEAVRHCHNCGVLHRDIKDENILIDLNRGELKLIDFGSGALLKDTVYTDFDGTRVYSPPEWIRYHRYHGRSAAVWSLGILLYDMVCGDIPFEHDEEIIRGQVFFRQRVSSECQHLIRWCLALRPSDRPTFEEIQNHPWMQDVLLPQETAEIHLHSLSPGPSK

U2OS = test: Antiproliferative activity against human U2OS cells assessed as inhibition of cell viability incubated for 48 hrs by MTS assay; assay type: functional, cell-based
HBL-100 = test: Antiproliferative activity against human HBL-100 cells assessed as inhibition of cell viability incubated for 48 hrs by MTS assay; assay type: functional, cell-based; details: HBL-100, 48 h
[5] = biological target: Dual specificity tyrosine-phosphorylation-regulated kinase 1A (Rattus norvegicus, UniProt Q63470); test: Inhibition of recombinant rat DYRK1A kinase domain (1 to 499 residues) extracted from bacteria using KKISGRLSPIMTEQ as substrate incubated for 30 mins in presence of ATP by ADP-Glo kinase assay
[6] = Cytotoxicity against human hTERT-RPE1 cells assessed as effect on cell viability incubated for 48 hrs by MTS assay; assay type: toxicity, cell-based, TERT-RPE1
[7] = Inhibition of recombinant human CDK9/Cyclin T extracted from baculovirus infected Sf9 cells using YSPTSPSYSPTSPSYSPTSPSKKKK as substrate assessed as enzyme residual activity at 1 uM incubated for 30 mins in presence of ATP by ADP-Glo kinase assay relative to control
[8] = biological target: T2, Serine/threonine-protein kinase haspin (Homo sapiens); test: Inhibition of recombinant human haspin kinase domain (470 to 798 residues) extracted from bacteria using histone H3 (1 to 21) peptide as substrate assessed as residual activity at 1 uM incubated for 30 mins in presence of ATP by ADP-Glo kinase assay relative to control
[9] = biological target: T3, Serine/threonine-protein kinase pim-1; test: Inhibition of recombinant human PIM-1 extracted from bacteria using histone H1 as substrate incubated for 30 mins in presence of ATP by ADP-Glo kinase assay
Target sequence in this assay (P11309 whole entry): as the sequence (P11309 whole entry, looked up) above

[10] = Inhibition of recombinant human CDK9/Cyclin T extracted from baculovirus infected Sf9 cells using YSPTSPSYSPTSPSYSPTSPSKKKK as substrate assessed as enzyme residual activity at 10 uM incubated for 30 mins in presence of ATP by ADP-Glo kinase assay relative to control
[11] = biological target: Glycogen synthase kinase-3 beta (Homo sapiens) (UniProt P49841); test: Inhibition of recombinant human GSK3beta extracted from baculovirus infected Sf9 cells using GS-1 (YRRAAVPPSPSLSRHSSPHQSpEDEEE) peptide as substrate assessed as enzyme residual activity at 10 uM incubated for 30 mins in presence of ATP by ADP-Glo kinase assay relative to control
[12] = biological target: Dual specificity tyrosine-phosphorylation-regulated kinase 1A (Rattus norvegicus) (UniProt Q63470); test: Inhibition of recombinant rat DYRK1A kinase domain (1 to 499 residues) extracted from bacteria using KKISGRLSPIMTEQ as substrate assessed as enzyme residual activity at 1 uM incubated for 30 mins in presence of ATP by ADP-Glo kinase assay relative to control
SH-SY5Y = test: Antiproliferative activity against human SH-SY5Y cells assessed as inhibition of cell viability incubated for 48 hrs by MTS assay; assay type: functional, cell-based
[13] = biological target: Dual specificity protein kinase CLK1 (Mus musculus) (UniProt P22518); test: Inhibition of recombinant mouse CLK1 extracted from bacteria using GRSRSRSRSRSR as substrate assessed as enzyme residual activity at 10 uM incubated for 30 mins in presence of ATP by ADP-Glo kinase assay relative to control
[14] = biological target: T4, Serine/threonine-protein kinase haspin (Homo sapiens, UniProt Q8TF76); test: Inhibition of recombinant human haspin kinase domain (470 to 798 residues) extracted from bacteria using histone H3 (1 to 21) peptide as substrate incubated for 30 mins in presence of ATP by ADP-Glo kinase assay
T4 sequence (Q8TF76 whole entry): T2 sequence (whole entry)

[15] = biological target: T2, Serine/threonine-protein kinase haspin (Homo sapiens); test: Inhibition of recombinant human haspin kinase domain (470 to 798 residues) extracted from bacteria using histone H3 (1 to 21) peptide as substrate assessed as residual activity at 10 uM incubated for 30 mins in presence of ATP by ADP-Glo kinase assay relative to control
[16] = biological target: Dual specificity protein kinase CLK1 (Mus musculus) (UniProt P22518); test: Inhibition of recombinant mouse CLK1 extracted from bacteria using GRSRSRSRSRSR as substrate assessed as enzyme residual activity at 1 uM incubated for 30 mins in presence of ATP by ADP-Glo kinase assay relative to control
HCT-116 = test: Antiproliferative activity against human HCT-116 cells assessed as inhibition of cell viability incubated for 48 hrs by MTS assay; assay type: functional, cell-based; details: HCT-116, 48 h
[17] = biological target: Dual specificity tyrosine-phosphorylation-regulated kinase 1A (Rattus norvegicus) (UniProt Q63470); test: Inhibition of recombinant rat DYRK1A kinase domain (1 to 499 residues) extracted from bacteria using KKISGRLSPIMTEQ as substrate assessed as enzyme residual activity at 10 uM incubated for 30 mins in presence of ATP by ADP-Glo kinase assay relative to control
[18] = biological target: Casein kinase I isoform epsilon (Homo sapiens) (UniProt P49674); test: Inhibition of recombinant human CK1epsilon extracted from baculovirus infected Sf9 cells using RRKHAAIGSpAYSITA peptide as substrate assessed as enzyme residual activity at 10 uM incubated for 30 mins in presence of ATP by ADP-Glo kinase assay relative to control
[19] = biological target: Casein kinase I isoform epsilon (Homo sapiens) (UniProt P49674); test: Inhibition of recombinant human CK1epsilon extracted from baculovirus infected Sf9 cells using RRKHAAIGSpAYSITA peptide as substrate assessed as enzyme residual activity at 1 uM incubated for 30 mins in presence of ATP by ADP-Glo kinase assay relative to control
[20] = biological target: Dual specificity protein kinase CLK1 (Mus musculus, UniProt P22518); test: Inhibition of recombinant mouse CLK1 extracted from bacteria using GRSRSRSRSRSR as substrate incubated for 30 mins in presence of ATP by ADP-Glo kinase assay
[21] = biological target: T1, Cyclin-dependent kinase 5/CDK5 activator 1 (Homo sapiens); test: Inhibition of recombinant human CDK5/p25 extracted from bacteria using histone H1 as substrate assessed as enzyme residual activity at 1 uM incubated for 30 mins in presence of ATP by ADP-Glo kinase assay relative to control; assay type: protein-complex assay
[22] = biological target: T3, Serine/threonine-protein kinase pim-1; test: Inhibition of recombinant human PIM-1 extracted from bacteria using histone H1 as substrate assessed as enzyme residual activity at 10 uM incubated for 30 mins in presence of ATP by ADP-Glo kinase assay relative to control
Target sequence in this assay (P11309 whole entry, looked up): as the sequence (P11309 whole entry, looked up) above

[23] = biological target: T2, Serine/threonine-protein kinase haspin (Homo sapiens); test: Inhibition of haspin in human U2OS cells assessed as at 1 uM incubated for 16 hrs by DAPI staining based immunofluorescence analysis relative to control; assay type: cell-based
[24] = Selectivity index, ratio of IC50 for inhibition of recombinant rat DYRK1A kinase domain (1to 499 residues) extracted from bacteria to IC50 for inhibition of human haspin kinase domain (470 to 798 residues) extracted from bacteria using histone H3 (1 to 21) peptide as substrate

Chain of Glycogen synthase kinase-3 beta (Homo sapiens) (P49841 whole entry, looked up, the tested form may be a part): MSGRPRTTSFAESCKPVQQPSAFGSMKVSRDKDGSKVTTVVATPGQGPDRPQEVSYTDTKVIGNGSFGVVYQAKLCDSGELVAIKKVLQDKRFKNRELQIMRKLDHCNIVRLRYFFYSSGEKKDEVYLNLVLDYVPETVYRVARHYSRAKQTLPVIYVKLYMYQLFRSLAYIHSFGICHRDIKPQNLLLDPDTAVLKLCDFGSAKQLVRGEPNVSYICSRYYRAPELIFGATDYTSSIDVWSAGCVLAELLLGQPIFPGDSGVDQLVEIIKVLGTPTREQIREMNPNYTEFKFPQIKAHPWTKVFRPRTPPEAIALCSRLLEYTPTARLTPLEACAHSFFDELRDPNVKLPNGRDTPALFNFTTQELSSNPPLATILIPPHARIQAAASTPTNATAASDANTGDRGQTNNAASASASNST
Chain of Casein kinase I isoform epsilon (Homo sapiens) (P49674 whole entry, looked up, canonical isoform): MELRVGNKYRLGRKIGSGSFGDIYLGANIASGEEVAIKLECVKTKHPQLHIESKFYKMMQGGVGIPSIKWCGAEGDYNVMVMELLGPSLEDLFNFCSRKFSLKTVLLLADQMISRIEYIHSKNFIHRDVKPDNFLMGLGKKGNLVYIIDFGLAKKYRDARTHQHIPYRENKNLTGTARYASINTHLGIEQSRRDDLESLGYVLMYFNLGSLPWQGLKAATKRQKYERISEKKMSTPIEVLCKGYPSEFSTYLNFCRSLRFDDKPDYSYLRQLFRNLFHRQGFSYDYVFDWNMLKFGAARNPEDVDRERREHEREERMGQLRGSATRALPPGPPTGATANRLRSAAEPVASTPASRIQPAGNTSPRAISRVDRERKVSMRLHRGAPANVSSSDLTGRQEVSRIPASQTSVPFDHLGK
T1 sequence (Q00535 whole entry): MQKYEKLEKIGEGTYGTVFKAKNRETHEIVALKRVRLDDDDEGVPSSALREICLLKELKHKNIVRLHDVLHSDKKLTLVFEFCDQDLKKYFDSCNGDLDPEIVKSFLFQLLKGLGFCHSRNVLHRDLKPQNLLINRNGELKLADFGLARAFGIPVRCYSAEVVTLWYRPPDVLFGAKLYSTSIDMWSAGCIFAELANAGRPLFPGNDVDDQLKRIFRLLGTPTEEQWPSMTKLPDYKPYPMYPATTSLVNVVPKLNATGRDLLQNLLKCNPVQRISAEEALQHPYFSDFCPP
T1 sequence (Q15078 99-307 partner limits assumed): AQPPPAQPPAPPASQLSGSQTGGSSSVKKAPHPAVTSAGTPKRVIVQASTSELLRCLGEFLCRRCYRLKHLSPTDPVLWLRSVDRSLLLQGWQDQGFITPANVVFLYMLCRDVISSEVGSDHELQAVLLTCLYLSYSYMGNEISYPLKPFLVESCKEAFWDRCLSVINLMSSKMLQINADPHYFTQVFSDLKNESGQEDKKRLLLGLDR
Chain of Dual specificity protein kinase CLK1 (P22518 whole entry): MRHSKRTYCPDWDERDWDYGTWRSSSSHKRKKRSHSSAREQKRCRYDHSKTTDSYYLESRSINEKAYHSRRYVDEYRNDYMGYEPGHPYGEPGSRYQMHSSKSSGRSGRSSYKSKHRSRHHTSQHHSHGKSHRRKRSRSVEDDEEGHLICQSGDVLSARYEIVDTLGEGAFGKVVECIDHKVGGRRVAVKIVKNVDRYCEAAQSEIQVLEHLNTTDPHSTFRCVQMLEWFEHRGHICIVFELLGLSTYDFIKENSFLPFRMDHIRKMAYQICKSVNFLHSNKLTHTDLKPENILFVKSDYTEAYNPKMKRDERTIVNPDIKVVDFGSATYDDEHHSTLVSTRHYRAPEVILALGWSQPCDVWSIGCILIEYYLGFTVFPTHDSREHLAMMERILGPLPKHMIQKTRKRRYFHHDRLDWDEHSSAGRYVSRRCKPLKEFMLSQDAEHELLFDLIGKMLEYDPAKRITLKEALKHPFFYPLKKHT
Chain of Dual specificity protein kinase CLK1 (Mus musculus) (P22518 whole entry, looked up, the tested form may be a part): as the sequence (P22518 whole entry) above

| SMILES | Activity [1] [%] | Activity [2] [%] | inhibition [3] | Activity [4] [%] | IC50 [5] [nM] | Activity [7] [%] | Activity [8] [%] | Activity [10] [%] | Activity [11] [%] | Activity [12] [%] | Activity [13] [%] | IC50 [14] [nM] | Activity [15] [%] | Activity [16] [%] | Activity [17] [%] | Activity [18] [%] | Activity [19] [%] | IC50 [20] [nM] | Activity [21] [%] | Activity [22] [%] | other results |
| --- | --- | --- | --- | --- | --- | --- | --- | --- | --- | --- | --- | --- | --- | --- | --- | --- | --- | --- | --- | --- | --- |
| c1cncc(-c2c[nH]c3cc4cnccc4cc23)c1 | 75 | 57 | 26% | 37 | 602 | 74 | 7 | 39 | 37 | 36 | 8 | 30.6 | 2 | 19 | 6 | 70 | 91 | 237 | 86 | 22 | EC50 (U2OS): 26.7 µM; EC50 (HBL-100): > 50 µM; EC50 at 48 h [6]: 18.2 µM; IC50 [9]: 114 nM; EC50 (SH-SY5Y): 41.2 µM; EC50 (HCT-116): 13 µM |
| Cn1cc(-c2ccncc2)c2cc3ccncc3cc21 | 74 | 44 | 37% | 37 | 339 | 97 | 7 | 59 | 92 | 23 | 13 | 23.6 | 5 | 35 | 9 | 42 | 72 | 546 | 63 | 18 | EC50 (U2OS): 3.2 µM; EC50 (HBL-100): 6.6 µM; EC50 at 48 h [6]: 2.3 µM; IC50 [9]: 1270 nM; EC50 (SH-SY5Y): 6.4 µM; EC50 (HCT-116): 2.1 µM |
| CCCNc1ccc2ncc(-c3ccc4[nH]ncc4c3)n2n1 | – | – | – | – | – | – | – | – | – | – | – | – | – | – | – | – | – | – | – | – | inhibition [23]: 100% |
| Cn1cc(-c2cccnc2)c2cc3ccncc3cc21 | 69 | 75 | No effect | 45 | 498 | 81 | 9 | 39 | 34 | 33 | 7 | 31.7 | 3 | 18 | 12 | 65 | 94 | 177 | 79 | 54 | EC50 (U2OS): 11.5 µM; EC50 (HBL-100): 26.9 µM; EC50 at 48 h [6]: 17.8 µM; IC50 [9]: 876 nM; EC50 (SH-SY5Y): 17.7 µM; EC50 (HCT-116): 15 µM |
| c1ccc(-c2c[nH]c3cc4cnccc4cc23)nc1 | 84 | 35 | – | 63 | 159 | 90 | 8 | 49 | 72 | 27 | 10 | 84.4 | 3 | 27 | 11 | 90 | 97 | 387 | 72 | 19 | Ratio IC50 [24]: 1.9 |
